Data set [1] deals with G-protein coupled receptor 84 (Homo sapiens, UniProt Q9NQS5). In words: biochemical.
Data set [2] can be described thus: Protein binding in mouse plasma assessed as unbound fraction. The data set is classed as ADME, cell-free.

SMILES strings stand for the structures.

Consider seven compounds from ChEMBL document CHEMBL5137091, “Investigating the Structure-Activity Relationship of 1,2,4-Triazine G-Protein-Coupled Receptor 84 (GPR84) Antagonists” (J Med Chem, 2022).

A word on the IC50: it is the concentration needed to halve the response being measured. As a reminder, the fraction unbound is free concentration divided by total concentration.

Sequence of G-protein coupled receptor 84 (Q9NQS5 whole entry): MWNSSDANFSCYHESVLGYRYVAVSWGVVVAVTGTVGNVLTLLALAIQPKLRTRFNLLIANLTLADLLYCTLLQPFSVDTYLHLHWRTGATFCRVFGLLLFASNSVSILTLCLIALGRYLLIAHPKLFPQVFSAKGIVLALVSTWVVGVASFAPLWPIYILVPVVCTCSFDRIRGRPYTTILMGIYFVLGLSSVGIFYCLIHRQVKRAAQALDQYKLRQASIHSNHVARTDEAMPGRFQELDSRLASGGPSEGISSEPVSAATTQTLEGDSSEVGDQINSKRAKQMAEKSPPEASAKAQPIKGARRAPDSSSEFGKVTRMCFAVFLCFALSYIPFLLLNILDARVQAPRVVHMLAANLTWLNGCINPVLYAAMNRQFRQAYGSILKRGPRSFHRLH

As for `c1ccc(-c2cnc(Cc3c[nH]c4ccccc34)nn2)cc1`, in data set [1], the 50% inhibitory concentration (IC50) is 5620 nM.
On to `COC(=O)c1cccc(-c2nc(Cc3c[nH]c4ccccc34)nnc2-c2ccccc2)c1`, for which the half-maximal inhibitory concentration (IC50) in data set [1] is 398 nM.
On to `c1ccc(-c2nnc(Cc3c[nH]c4ccccc34)nc2-c2ncccn2)cc1`, for which half-maximal inhibition in data set [1] (IC50) required 263 nM.
Still for that read-out and setting: the result for `COC(=O)c1cccc(-c2nnc(Cc3c[nH]c4ccccc34)nc2-c2ccccc2)c1` reads 115 nM.
`c1ccc(-c2nc(Cc3c[nH]c4ccccc34)nnc2-c2ccc(CN3CCOCC3)cc2)cc1`: the fraction unbound in data set [2] is less than 0.01.
In data set [1], `c1ccc(-c2cnnc(Cc3c[nH]c4ccccc34)n2)cc1` gave a concentration for half-maximal inhibition (IC50) of 10200 nM.
With `c1ccc(-c2nnc(Cc3c[nH]c4ccccc34)nc2-c2ccccc2)cc1`, the fraction unbound in data set [2] is less than 0.01.
